Data published in patent publication US10221163B2 (priority 2015, dated 2019).
Where two headings read alike, the source gives them in different places.

Key:
[1] = system: Escherichia coli expressing NDM-1 (CLB30005, CLB30016); type: cell-based; settings: with imipenem 1 μg/ml; for Escherichia coli MITC95: NDM-1 strain, 95% inhibition of growth; for Escherichia coli expressing NDM-1 (CLB30016) MITC95: 95% inhibition of bacterial growth
How it was run: (§1)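 Clinical strains grown overnight on blood agar at 35°C, colonies suspended in saline, diluted 1:100 into 1.1×CAMHB. Test compound titrated with imipenem at 1 μg/ml; incubated 22–24 h at 35°C, growth read by absorbance.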

[2] = system: Klebsiella pneumoniae expressing VIM-1 (IHMA599644); type: cell-based; settings: for Klebsiella pneumoniae MITC95: VIM-1 strain IHMA599644, with imipenem 1 μg/ml, 95% inhibition of growth; for Klebsiella pneumoniae expressing VIM-1 (IHMA599644) MITC95: with imipenem 1 μg/ml, 95% inhibition of bacterial growth
How it was run: as §1

[3] = system: Serratia marcescens expressing IMP-1 (CL5741); type: cell-based; settings: for Serratia marcescens MITC95: IMP-1 strain CL5741, with imipenem 1 μg/ml, 95% inhibition of growth; for Serratia marcescens expressing IMP-1 (CL5741) MITC95: with imipenem 1 μg/ml, 95% inhibition of bacterial growth
How it was run: as §1

NDM-1 = NDM-1 (Klebsiella pneumoniae, UniProt C7C422); assay: biochemical; type: biochemical; settings: fluorescence assay, CCF2-FA substrate, 1 pM enzyme, 2 hours at 25° C.; read-out: NDM-1 IC50
Sequence of NDM-1 (C7C422 whole entry, looked up, species assumed): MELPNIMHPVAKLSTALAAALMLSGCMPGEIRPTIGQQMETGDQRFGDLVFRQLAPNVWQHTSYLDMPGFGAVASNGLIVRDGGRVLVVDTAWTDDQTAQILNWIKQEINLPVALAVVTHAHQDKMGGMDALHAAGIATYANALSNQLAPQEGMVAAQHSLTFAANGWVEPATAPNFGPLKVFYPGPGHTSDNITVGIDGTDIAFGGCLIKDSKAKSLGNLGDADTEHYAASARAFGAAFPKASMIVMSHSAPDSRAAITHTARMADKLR
How it was run: (§2)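 Two-hour, 25° C incubation of enzyme with inhibitor and CCF2-FA (7-hydroxycoumarin–cephalosporin–fluorescein). Fluorescence read-out; IC50 via 4-parameter fit.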

IMP-1 = IMP-1 (Serratia marcescens, UniProt P52699); assay: biochemical; type: biochemical; settings: fluorescence assay, CCF2-FA substrate, 2 pM enzyme, 2 hours at 25° C.; read-out: IMP-1 IC50
Sequence of IMP-1 (P52699 whole entry, looked up, species assumed): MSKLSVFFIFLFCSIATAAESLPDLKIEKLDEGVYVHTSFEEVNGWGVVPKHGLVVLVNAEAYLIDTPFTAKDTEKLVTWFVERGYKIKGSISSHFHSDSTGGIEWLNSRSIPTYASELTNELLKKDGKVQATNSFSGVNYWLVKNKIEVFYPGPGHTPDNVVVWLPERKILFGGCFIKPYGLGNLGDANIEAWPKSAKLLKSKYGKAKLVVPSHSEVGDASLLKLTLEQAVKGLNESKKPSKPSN
How it was run: as §2

[4] = system: Pseudomonas aeruginosa efflux+ (MB9798), IMP-1; type: cell-based; set-up: Concentration of metallo-β-lactamase inhibitor which restores susceptibility of efflux + (MB9798) strain to imipenem: unit not given here; settings: C, D serine β-lactamase inhibitor closely related to relebactam; for P. aeruginosa expressing IMP-1, efflux + (MB9798) MITC95: concentration restoring susceptibility to imipenem at 2 μg/mL in the presence of a class A
How it was run: (§3)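 Steps: add fixed imipenem and/or ceftazidime (usually CLSI breakpoint) and fixed AmpC-directed class A/C inhibitor to microbroth MIC wells; titrate MBL inhibitor; record concentration regaining susceptibility for each PAO1-derived strain; divide efflux+ by efflux− value.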

[5] = system: Pseudomonas aeruginosa MB9798 vs MB9799
How it was run: as §3

VIM-1 = VIM-1 (Pseudomonas aeruginosa (strain ATCC 15692 / DSM 22644 / CIP 104116 / JCM 14847 / LMG 12228 / 1C / PRS 101 / PAO1), UniProt A0A0F7KYQ8); assay: biochemical; settings: CCF2-FA substrate, 30 pM enzyme, 2 hours at 25° C.
How it was run: as §2

[6] = system: Pseudomonas aeruginosa efflux− (MB9799), IMP-1; type: cell-based; settings: C, D serine β-lactamase inhibitor closely related to relebactam; for P. aeruginosa expressing IMP-1, efflux − (MB9799) MITC95: concentration restoring susceptibility to imipenem at 2 μg/mL in the presence of a class A
How it was run: as §3

[7] = ratio MITC95 PA_9798/MITC95 PA_9799
[8] = fluorescence assay, read-out: VIM-1 IC50

| Structure (SMILES) | Escherichia coli MITC95 [1] [µM] | Klebsiella pneumoniae MITC95 [2] [µM] | Serratia marcescens MITC95 [3] [µM] | IC50 (NDM-1) [pM] | IC50 (IMP-1) [pM] | P. aeruginosa expressing IMP-1, efflux + (MB9798) MITC95 [4] [µM] | Efflux ratio [5, 7] | IC50 (VIM-1; VIM-1 IC50, fluorescence assay) [pM] | P. aeruginosa expressing IMP-1, efflux − (MB9799) MITC95 [6] [µM] | Escherichia coli expressing NDM-1 (CLB30016) MITC95 [1] [µM] | Klebsiella pneumoniae expressing VIM-1 (IHMA599644) MITC95 [2] [µM] | Serratia marcescens expressing IMP-1 (CL5741) MITC95 [3] [µM] | IC50 (VIM-1; [8]) [pM] | Concentration of metallo-β-lactamase inhibitor which restores susceptibility of efflux + (MB9798) strain to imipenem ([4]; efflux+ MB9798, imipenem at 2 μg/mL, in the presence of a class A) | Efflux ratio ([5]; fold difference between efflux+ (MB9798) and efflux− (MB9799) strains, imipenem at 2 μg/mL) | Concentration of metallo-β-lactamase inhibitor which restores susceptibility of efflux − (MB9799) strain to imipenem ([6]; efflux− MB9799, imipenem at 2 μg/mL, in the presence of a class A) |
| --- | --- | --- | --- | --- | --- | --- | --- | --- | --- | --- | --- | --- | --- | --- | --- | --- |
| Nc1nc(-c2cccc(-c3ccc(S(=O)(=O)N[C@H]4CNC[C@H]4N)c(S(N)(=O)=O)c3-c3nn[nH]n3)c2)c[nH]1 [Example 327, 3′-(2-amino-1H-imidazol-4-yl)-N4-((3S,4R)-4-aminopyrrolidin-3-yl)-2-(2H-tetrazol-5-yl)-[1,1′-biphenyl]-3,4-disulfonamide] | 3.125 | 1.563 | 3.125 | 259 | 1410 | 1.563 | 2.00 | 649 | 0.7813 |  |  |  |  |  |  |  |
| Nc1nc2c(-c3ccc(S(=O)(=O)NCC4CCNC4)c(S(N)(=O)=O)c3-c3nnn[nH]3)cccc2s1.O=CO (stereo not drawn) [Example 120, 3-((4-(2-aminobenzo[d]thiazol-4-yl)-2-sulfamoyl-3-(1H-tetrazol-5-yl)phenylsulfonamido)methyl)pyrrolidin-1-ium formate] |  |  |  | 49.5 | 258 | 0.7813 | 0.50 | 202 | 1.563 | 1.563 | 3.125 | 1.563 |  |  |  |  |
| Nc1nc2c(-c3ccc(S(=O)(=O)N[C@@H]4CCNC4)c(S(N)(=O)=O)c3-c3nn[nH]n3)cc(I)cc2[nH]1 [Example 234, (R)-4-(2-amino-6-iodo-1H-benzo[d]imidazol-4-yl)-N^1-(pyrrolidin-3-yl)-3-(2H-tetrazol-5-yl)benzene-1,2-disulfonamide] |  |  |  | 15.7 | 140 | 0.7813 | 1.00 |  | 0.7813 | 0.7813 | 0.7813 | 0.7813 | 82.9 |  |  |  |
| NC[C@H](CO)NS(=O)(=O)c1ccc(-c2cccc(N)n2)c(-c2nn[nH]n2)c1S(N)(=O)=O [Example 364, (R)—N^1-(1-amino-3-hydroxypropan-2-yl)-4-(6-aminopyridin-2-yl)-3-(2H-tetrazol-5-yl)benzene-1,2-disulfonamide] | 3.125 | 6.25 | 3.125 | 3250 | 14600 | 3.125 | 2.00 |  | 1.563 |  |  |  | 3240 |  |  |  |
| NCCNc1cc(-c2ccc(S(=O)(=O)NCCN)c(S(N)(=O)=O)c2-c2nn[nH]n2)ccn1 [Example 456, N1-(2-Aminoethyl)-4-(2-((2-aminoethyl)amino)pyridin-4-yl)-3-(2H-tetrazol-5-yl)benzene-1,2-disulfonamide] | 0.7813 | 1.563 | 0.7813 | 1560 | 3770 |  |  |  |  |  |  |  | 545 | 1.563 | 2.00 | 0.7813 |
| NC[C@@H](N)CNS(=O)(=O)c1ccc(-c2cnc(N)s2)c(-c2nn[nH]n2)c1S(N)(=O)=O [Example 377, (R)-4-(2-aminothiazol-5-yl)-N1-(2,3-diaminopropyl)-3-(2H-tetrazol-5-yl)benzene-1,2-disulfonamide] | 0.7813 | 3.125 | 1.563 | 573 | 1180 | 1.563 | 2.00 |  | 0.7813 |  |  |  | 885 |  |  |  |
| NC[C@@H](O)CNS(=O)(=O)c1ccc(-c2cccc3[nH]cnc23)c(-c2nn[nH]n2)c1S(N)(=O)=O [Example 301, (R)-4-(1H-benzo[d]imidazol-4-yl)-N1-(3-amino-2-hydroxypropyl)-3-(2H-tetrazol-5-yl)-benzene-1,2-disulfonamide] | 1.563 | 3.125 | 0.3906 | 16.4 | 128 | 0.7813 | 1.00 |  | 0.7813 |  |  |  | 52.8 |  |  |  |
| Nc1nc2c(-c3ccc(S(=O)(=O)N[C@@H]4CN[C@@H](CO)C4)c(S(N)(=O)=O)c3-c3nnn[nH]3)cccc2[nH]1 [Example 174, 4-(2-amino-1H-benzo[d]imidazol-4-yl)-N^1-((3S,5R)-5-(hydroxymethyl)pyrrolidin-3-yl)-3-(1H-tetrazol-5-yl)benzene-1,2-disulfonamide] |  |  |  | 117 | 1660 | 1.563 | 1.00 | 390 | 1.563 | 3.125 | 3.125 | 1.563 |  |  |  |  |
| Nc1nc2c(-c3ccc(S(=O)(=O)N[C@H]4CN[C@H](CO)C4)c(S(N)(=O)=O)c3-c3nnn[nH]3)cccc2[nH]1 [Example 172, 4-(2-amino-1H-benzo[d]imidazol-4-yl)-N^1-((3R,5S)-5-(hydroxymethyl)pyrrolidin-3-yl)-3-(1H-tetrazol-5-yl)benzene-1,2-disulfonamide] |  |  |  | 50 | 509 | 0.3906 | 0.50 | 159 | 0.7813 | 0.5859 | 1.563 | 0.7813 |  |  |  |  |
| CN(C1CCS(=O)(=O)C1)S(=O)(=O)c1ccc(-c2cccc3sc(N)nc23)c(-c2nnn[nH]2)c1S(N)(=O)=O (stereo not drawn) [Example 41, 4-(2-amino-1,3-benzothiazol-4-yl)-N^1-(1,1-dioxidotetrahydrothiophen-3-yl)-N~1~-methyl-3-(1H-tetrazol-5-yl)benzene-1,2-disulfonamide] |  |  |  | 938 | 810 | 25 | 8.00 |  | 3.125 | 25 | 25 | 6.25 | 1750 |  |  |  |
